Here are results for four molecules from patent US20250019703A1, “PHARMACEUTICAL COMPOSITION FOR PREVENTION OR TREATMENT OF BLOOD CANCER COMPRISING SURF4 INHIBITOR” (PUSAN NATIONAL UNIVERSITY INDUSTRY-UNIVERSITY COOPERATION …, priority 2021, published 2025).

Test [1] has as its system STING in myeloid leukemia cells. The experiment in a line: Apoptosis and pTBK1 expression after cGAMP treatment. The format is cell-based. As to conditions: cells treated with cGAMP; FIG. 15B. The method, then: Based on a report that STING, one of the endoplasmic reticulum membrane proteins, induces apoptosis and binds to SURF4 and STAT6, cells were treated with cGAMP, which induces STING. Specifically, cells were collected and lysed with a lysis buffer to extract proteins, which were then separated on a 10% SDS-PAGE gel and transferred to a membrane. pJNK, JNK, BAX, caspase 9, cleaved caspase 9, caspase 3, cleaved caspase 3, PARP, IRE1α, GRP78, PERK, pelF2α, elF2α, ATF4, CHOP, pSTAT6, STAT6, STING, pTBK1, and actin antibodies were each added, allowed to stand at 4° C. for 16 hours, and then a secondary antibody was added and allowed to stand at room temperature for one hour. Afterward, the resulting mixture was allowed to react with an ECL reagent, and the ECL was measured using a chemiluminescence image analyzer.

Test [2] concerns THP1, HL60, and K562 cells. The experiment in a line: Annexin V/7AAD apoptosis after tunicamycin treatment. The class given is cell-based, human. As to conditions: tunicamycin 10 μM alone, FIG. 7. The method, then: Apoptosis was measured after treating SURF4 shRNA-transfected THP1, HL60, and K562 cells with tunicamycin. The transfected SURF4 shRNA was the same as in Example 1-(1). Specifically, the concentration of tunicamycin treated in the THP1, HL60, and K562 cells was 10 μM, and after transfecting the cells with SURF4 shRNA, the cells were treated with tunicamycin 7 to 10 days later. Afterward, cells of each type were collected and suspended with an Annexin V binding buffer, and then Annexin V-FITC and 7AAD were added to perform measurement using a FACS flow cytometer.

Test [3] deals with THP1, HL60, and K562 cells. Briefly: Annexin V/7AAD apoptosis after paclitaxel treatment. The class given is cell-based, human. As to conditions: paclitaxel 0.5 μM alone, FIG. 5. The method, then:
Apoptosis was measured after treating SURF4 shRNA-transfected THP1, HL60, and K562 cells with paclitaxel. The transfected SURF4 shRNA was the same as in Example 1-(1). Specifically, the concentration of paclitaxel treated in the THP1, HL60, and K562 cells was 0.5 μM, and after transfecting the cells with SURF4 shRNA, the cells were treated with paclitaxel 7 to 10 days later. Afterward, cells of each type were collected and suspended with an Annexin V binding buffer, and then Annexin V-FITC and 7AAD were added to perform measurement using a FACS flow cytometer.

In test [4] the test system is pSTAT6 in THP1 and HL60 cells. The experiment in a line: Western blot of pSTAT6 after IL4 treatment. The class given is cell-based, human. As to conditions: IL4 5 ng/ml for 60 minutes, FIG. 12. The method, then:
Based on a report that apoptosis is induced by pSTAT6 through IL4 in leukemia cells, the expression of pSTAT6 was confirmed by treating a leukemia cell line with IL4, which induces STAT6. Specifically, THP1 and HL60 cells transfected with 6 μg of SURF4 shRNA were lysed by treating them with IL4 (5 ng/ml) for 60 minutes, and then Western blot was performed, and the SURF4 expression in the THP1 and HL60 cells transfected with SURF4 shRNA was measured by qRT-PCR. The cells were lysed with a lysis buffer to extract proteins, which were then separated on a 10% SDS-PAGE gel and transferred to a membrane. pJNK, JNK, BAX, caspase 9, cleaved caspase 9, caspase 3, cleaved caspase 3, PARP, IRE1α, GRP78, PERK, pelF2α, elF2α, ATF4, CHOP, pSTAT6, STAT6, STING, pTBK1, and actin antibodies were each added, allowed to stand at 4° C. for 16 hours, and then a secondary antibody was added and allowed to stand at room temperature for one hour. Afterward, the resulting mixture was allowed to react with an ECL reagent, and the ECL was measured using a chemiluminescence image analyzer. In addition, RNA was extracted from the cells using an RNA extraction kit, and cDNA was synthesized from the RNA using a cDNA synthesis kit. A qRT-PCR analysis was performed using the synthesized cDNA, SURF4 primers, and a SYBR green.

On to `Nc1nc2c(ncn2[C@@H]2O[C@@H]3COP(=O)(O)O[C@H]4[C@@H](O)[C@H](n5cnc6c(N)ncnc65)O[C@@H]4COP(=O)(O)O[C@@H]2[C@@H]3O)c(=O)[nH]1` [cGAMP, cyclic guanosine monophosphate-adenosine monophosphate], for which the pTBK1 expression entry in test [1] was “pTBK1 downstream of STING increased”.

Take tunicamycin: the apoptosis result in test [2] is on record as “induced apoptosis”.

Take `CC(=O)O[C@H]1C(=O)[C@@]2(C)[C@H]([C@H](OC(=O)c3ccccc3)[C@]3(O)C[C@H](OC(=O)[C@H](O)[C@@H](NC(=O)c4ccccc4)c4ccccc4)C(C)=C1C3(C)C)[C@]1(OC(C)=O)CO[C@@H]1C[C@@H]2O` [paclitaxel]: the apoptosis result in test [3] is “induced apoptosis”.

B1: IL4: interleukin-4, which induces STAT6 / the expression of pSTAT6 (protein, UniProt P05112 25-153, looked up)
Interleukin-4: HKCDITLQEIIKTLNSLTEQKTLCTELTVTDIFAASKNTTEKETFCRAATVLRQFYSHHEKDTRCLGATAQQFHRHKQLIRFLKRLDRNLWGLAGLNSCPVKEANQSTLENFLERLKTIMREKYSKCSS
Take B1: in test [4], the “pSTAT6 expression (Western blot)” value is “pSTAT6 increased in both the control cells and the cells transfected with SURF4 shRNA”.
